One molecule from EPA's ToxValDB 9.5 (doi:10.2903/j.efsa.2006.75r) can be followed below.

Converted amounts (≈) assume the structure as drawn.

The subject of data set [1] is Aphidius rhopalosiphi. Briefly: LR50; higher = less toxic. Conditions: acute; duration: 48 hours; mortality.
For data set [2], the system named is Aphidius rhopalosiphi. Conditions: chronic/long-term; reproduction.
The test system of a further data set is Canidae. Conditions: short-term; duration: 28 days; oral; Dog Other; clinical chemistry.
The next data set deals with Tagia sp. Conditions: acute; mortality.
Another data set relates to Coturnix japonica. Conditions: acute; oral; diet; mortality.
The conditions of data set [3]: chronic.
A further data set relates to Rattus norvegicus. Conditions: for NOAEL: clinical chemistry.
Another data set deals with Apis mellifera. Conditions: acute, mortality.
A further data set deals with Daphnia magna. Conditions: chronic/long-term; duration: 21 days; reproduction.
A further data set relates to Lepomis macrochirus. Conditions: acute; duration: 96 hours; mortality.
Another data set deals with Mus musculus. Conditions: oral.
In another data set the test system is Oncorhynchus mykiss. Conditions: chronic/long-term; duration: 96 days; growth.

`COP(=S)(OC)SCN1C(=O)c2ccccc2C1=O` [Phosmet] gave an LR50 in the data set with Aphidius rhopalosiphi [1] of 1.95 g/ha. In the data set on Aphidius rhopalosiphi [2], the LEL turned out to be 1.41 g/ha. Moreover, the NOAEL is 2 mg/kg-day with Canidae; 4.5 mg/kg-day in the data set on Rattus norvegicus (acute); 1.5 mg/kg-day in the data set with Rattus norvegicus (subchronic, duration: 13 weeks); 2 mg/kg-day with Rattus norvegicus (subchronic, duration: 90 days, oral); 2 mg/kg-day with Mus musculus (short-term, duration: 28 days, clinical chemistry). The LC50 in the data set with Tagia sp. came out at 104 mg/kg; in the data set on Coturnix japonica it was 406 mg/kg-day; with Lepomis macrochirus, 0.0197 µg/mL (≈ 0.0621 µM). Besides, the NOEC in data set [3] came out at 0.001 mg/L; with Colinus virginianus (reproduction developmental) it was 7.5 mg/kg-day; with Daphnia magna it was 0.00078 mg/L; with Oncorhynchus mykiss, 0.0032 mg/L. The LD50 was 113 mg/kg in the data set on Rattus norvegicus (acute, oral, mortality); 0.22 µg/piece in the data set with Apis mellifera (duration: 48 hours, dermal); 0.37 µg/piece in the data set with Apis mellifera (oral, unspecified); 57 mg/kg in the data set with Colinus virginianus (acute, oral, mortality). Besides, in the data set with Rattus norvegicus (reproduction developmental), the NOAEC came out at 1.5 mg/kg-day. Besides, the lowest observed adverse effect level (LOAEL) with Mus musculus (chronic, duration: 2 years, diet, neurology) was 1 mg/kg-day.
